A short description of series [1]: RP TLC on unimpregnated RP-2 control plate. The settings on record: Rf value from unimpregnated RP plate (control); mobile phase pH 7.4. It counts as physicochemical.
In series [2] the target is T1, bovine serum albumin BSA (Bos taurus, UniProt P02769).
T1 construct: purchased Sigma Aldrich
As to the kind of experiment: RP TLC on silanized RP-2 plates impregnated with bovine serum albumin. It counts as in vitro ADME. Particulars: for RP: Rf value from RP plate impregnated with 2 mg/mL BSA solution, mobile phase pH 7.4; for RP/C: Rf from BSA-modified RP-2 plate / Rf from clear one (control).

For series [3], the target named is T2, human serum albumin HSA (Homo sapiens, UniProt P02768).
T2 construct: 4 × 10 mm
T2 sequence (P02768 25-609): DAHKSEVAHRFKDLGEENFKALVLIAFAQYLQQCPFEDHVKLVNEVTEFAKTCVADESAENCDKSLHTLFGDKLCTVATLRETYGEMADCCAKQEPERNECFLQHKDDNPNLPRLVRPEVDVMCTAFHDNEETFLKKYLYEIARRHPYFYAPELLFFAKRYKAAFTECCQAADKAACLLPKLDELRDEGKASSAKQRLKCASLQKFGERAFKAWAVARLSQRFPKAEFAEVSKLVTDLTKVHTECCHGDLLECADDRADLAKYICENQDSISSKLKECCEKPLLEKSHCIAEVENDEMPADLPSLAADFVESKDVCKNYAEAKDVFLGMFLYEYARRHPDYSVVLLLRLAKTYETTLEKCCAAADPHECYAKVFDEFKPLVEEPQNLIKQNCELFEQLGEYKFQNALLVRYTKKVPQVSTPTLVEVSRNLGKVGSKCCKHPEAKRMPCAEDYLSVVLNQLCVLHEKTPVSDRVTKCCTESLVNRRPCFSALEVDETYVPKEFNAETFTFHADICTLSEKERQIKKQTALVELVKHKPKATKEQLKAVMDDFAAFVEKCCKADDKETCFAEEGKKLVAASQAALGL
As to the kind of experiment: HPLC on immobilized human serum albumin column (HPLC-HSA). It is filed as in vitro ADME. The settings on record: for log kHSA: logarithm of retention factor, mobile phase pH 7.4; for kHSA: retention factor, acetate buffer pH 7.4/acetonitrile/methanol 85:10:5.

Series [4] addresses T1, bovine serum albumin BSA. Kind of series: NP TLC on silica gel plates impregnated with bovine serum albumin. The settings on record: for NP/C: Rf from BSA-modified NP plate / Rf from clear one (control). It counts as in vitro ADME.
On the set-up of series [5]: method as in earlier work. The settings on record: code describing the acid-base properties; source Chembl; cited from earlier work.
A short description of series [6]: NP TLC on unimpregnated control plate. It counts as physicochemical. Particulars: Rf value from unimpregnated NP plate (control); mobile phase pH 7.4.
Series [7] can be described thus: HPLC on immobilized artificial membrane column (HPLC-IAM). It counts as physicochemical. The settings on record: for log kIAM: logarithm of retention factor, mobile phase pH 7.4; for kIAM: retention factor, phosphate buffer pH 7.4/acetonitrile 80:20.
The mark [8] stands for this setting: Rf value from NP plate impregnated with 2 mg/mL BSA solution, mobile phase pH 7.4.
For a/b/n code in this document: key: (-1) - acids; (0) - neutrals; (1) - bases.

T1 sequence (P02769 25-607): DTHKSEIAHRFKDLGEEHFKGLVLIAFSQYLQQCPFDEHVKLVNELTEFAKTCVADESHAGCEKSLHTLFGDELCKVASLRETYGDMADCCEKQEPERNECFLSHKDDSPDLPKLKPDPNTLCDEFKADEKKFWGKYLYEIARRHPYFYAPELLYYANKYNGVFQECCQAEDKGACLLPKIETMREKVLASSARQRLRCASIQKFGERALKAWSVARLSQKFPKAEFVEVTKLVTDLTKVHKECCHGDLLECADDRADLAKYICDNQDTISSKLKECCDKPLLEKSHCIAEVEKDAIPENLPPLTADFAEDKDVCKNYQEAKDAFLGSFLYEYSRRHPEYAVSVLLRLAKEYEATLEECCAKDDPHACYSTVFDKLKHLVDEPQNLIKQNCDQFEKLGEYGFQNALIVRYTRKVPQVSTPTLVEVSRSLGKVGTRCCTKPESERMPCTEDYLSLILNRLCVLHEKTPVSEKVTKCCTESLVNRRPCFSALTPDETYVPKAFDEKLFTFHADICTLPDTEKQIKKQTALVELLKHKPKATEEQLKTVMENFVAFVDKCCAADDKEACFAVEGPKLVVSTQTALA

As to `CC(=O)Nc1nnc(S(N)(=O)=O)s1` [acetazolamid], the CRP in series [1] stood at 0.97. Besides, the RP in series [2] amounted to 0.96. Besides, in series [3], the “log kHSA” value is -0.13 and the kHSA came out at 0.74.

For `CN(C)CCC=C1c2ccccc2CCc2ccccc21` [amitriptyline], in series [4], the NP/C is reported as 0.97. This compound displayed an NP in series [4] (setting [8]) of 0.31. Moreover, the CRP in series [1] was 0.67. The a/b/n code in series [5] is listed as 1. Moreover, the CNP in series [6] is 0.32. In series [2], this compound returned an RP/C of 0.94 and an RP of 0.63. Moreover, in series [3], the “log kHSA” value is 0.77 and the kHSA is given as 5.87.

Regarding `CCCCN1CCCCC1C(=O)Nc1c(C)cccc1C` (stereo not shown) [bupivacaine], the NP/C in series [4] was found to be 1.00. This compound also registered an NP in series [4] (setting [8]) of 0.67. Further, the CRP in series [1] amounted to 0.74. Moreover, in series [5], the a/b/n code was 0. The same compound displayed a CNP in series [6] of 0.67. In series [2], this compound had an RP/C of 1.01 and an RP of 0.75. Moreover, in series [3], the “log kHSA” value worked out at 0.07 and the kHSA was determined as 1.18.

As to `CCN(CC)CCCC(C)Nc1ccnc2cc(Cl)ccc12` (stereo not shown) [chloroquine], in series [7], the “log kIAM” value is reported as 0.49.

For the compound `CN(C)CCCC1(c2ccc(F)cc2)OCc2cc(C#N)ccc21` (stereo not shown) [citalopram], in series [7], the “log kIAM” value was 0.50 and the kIAM is 3.14.

In series [7], `CN(C)CCCN1c2ccccc2CCc2ccc(Cl)cc21` [clomipramine] showed a kIAM of 3.05.

Regarding `CN(C)CCC=C1c2ccccc2COc2ccccc21` [doxepin], in series [7], the “log kIAM” value turned out to be 0.45 and the kIAM is listed as 2.81. The same compound registered an NP/C in series [4] of 1.03. For the same compound, the NP in series [4] (setting [8]) is 0.31. Also, in series [5], the a/b/n code is reported as 1. Moreover, the CNP in series [6] came out at 0.30. Moreover, in series [2], the RP/C is recorded as 0.93 and the RP is listed as 0.54. For the same compound, in series [3], the “log kHSA” value came to 0.63 and the kHSA is on record as 4.25.

`CNCC[C@H](Oc1cccc2ccccc12)c1cccs1` [duloxetine]: in series [7], the “log kIAM” value was 0.45 and the kIAM came to 2.84. In series [3], the “log kHSA” value turned out to be 0.91 and the kHSA is 8.16.

Turning to `CN1CCC[C@@H]1Cc1c[nH]c2ccc(CCS(=O)(=O)c3ccccc3)cc12` [eletriptan], in series [7], the “log kIAM” value was 0.55 and the kIAM is 3.57. The a/b/n code in series [5] is listed as 1. In series [3], the “log kHSA” value is reported as 0.58 and the kHSA was determined as 3.78.

Take `COCCCC/C(=N\OCCN)c1ccc(C(F)(F)F)cc1` [fluvoxamine]: the CNP in series [6] is given as 0.34.

Consider `NCC1(CC(=O)O)CCCCC1` [gabapentin], for which, in series [7], the “log kIAM” value turned out to be 0.23 and the kIAM is 1.70. Besides, in series [3], the “log kHSA” value is given as -0.84 and the kHSA is 0.15.

For the compound `NS(=O)(=O)c1cc2c(cc1Cl)NCNS2(=O)=O` [hydrochlorotiazide], in series [7], the “log kIAM” value is recorded as 0.30 and the kIAM stood at 2.01.

For `CCC[C@@H]1C[C@@H](C(=O)N[C@@H]([C@H]2O[C@H](SC)[C@H](O)[C@@H](O)[C@H]2O)[C@@H](C)O)N(C)C1` [lincomycin], in series [7], the “log kIAM” value worked out at 0.59 and the kIAM is recorded as 3.89. Further, in series [4], the NP/C is 1.00. Also, in series [4] (setting [8]), the NP is listed as 0.91. Further, the a/b/n code in series [5] is 1. In addition, the CNP in series [6] is on record as 0.91. Besides, in series [3], the “log kHSA” value is reported as -0.08 and the kHSA came out at 0.82.

As to `Nc1ccc(O)c(C(=O)O)c1` [mesalazine], in series [7], the “log kIAM” value was 0.11 and the kIAM was found to be 1.28. Further, the CRP in series [1] came to 0.99. In series [5], the a/b/n code was -1. In series [2], the RP/C turned out to be 0.98 and the RP came out at 0.97. In series [3], the “log kHSA” value was -0.73 and the kHSA stood at 0.18.

Consider `Nc1cc(N2CCCCC2)nc(N)[n+]1[O-]` [minoxidil], for which, in series [7], the “log kIAM” value is 0.29 and the kIAM is 1.96.

For `CC1COc2c(N3CCN(C)CC3)c(F)cc3c(=O)c(C(=O)O)cn1c23` (stereo not shown) [ofloxacin], in series [7], the “log kIAM” value was 0.49 and the kIAM is recorded as 3.07. Also, in series [4] (pH 7.4), the NP came to 0.23. Further, in series [6], the CNP is given as 0.24.

In the case of `NC(=O)N1c2ccccc2CC(=O)c2ccccc21` [oxcarbamazepine], in series [7], the “log kIAM” value came to 0.35 and the kIAM amounted to 2.26. The NP in series [4] (setting [8]) was 0.90. In series [1], this compound displayed a CRP of 0.91. For the same compound, the CNP in series [6] was found to be 0.91. In series [2], this compound had an RP of 0.91. Besides, in series [3], the “log kHSA” value is listed as -0.40 and the kHSA is 0.40.

Turning to `CC(C)C[C@H](CN)CC(=O)O` [pregabalin], in series [7], the “log kIAM” value is given as 0.22 and the kIAM is given as 1.65. In series [3], the “log kHSA” value was -0.87 and the kHSA stood at 0.14.

With `CCCc1cc(=O)[nH]c(=S)[nH]1` [propylthiouracil], in series [7], the “log kIAM” value came to 0.18 and the kIAM is listed as 1.51.

For the compound `C=C[C@H]1C[N@@]2CC[C@H]1C[C@H]2[C@H](O)c1ccnc2ccc(OC)cc12` [quinine], in series [7], the “log kIAM” value is 0.49 and the kIAM is 3.06.

In the case of `CO[C@H]1/C=C/O[C@@]2(C)Oc3c(C)c(O)c4c(O)c(c(/C=N/N5CCN(C)CC5)c(O)c4c3C2=O)NC(=O)/C(C)=C\C=C\[C@H](C)[C@H](O)[C@@H](C)[C@@H](O)[C@@H](C)[C@H](OC(C)=O)[C@@H]1C` [rifampicin], in series [7], the “log kIAM” value is 0.92 and the kIAM is 8.37. In series [4] (setting [8]), the NP is 0.77. In series [1], the CRP was 0.95. For the same compound, in series [6], the CNP worked out at 0.73. The RP in series [2] was determined as 0.94. Besides, in series [3], the “log kHSA” value is on record as -1.53 and the kHSA was determined as 0.03.

As to `CC(C)(C)NC[C@H](O)COc1nsnc1N1CCOCC1` [timolol], the kIAM in series [7] amounted to 2.88. Besides, the NP in series [4] (setting [8]) is recorded as 0.32. The CRP in series [1] came to 0.97. The compound also yielded a CNP in series [6] of 0.34. The same compound gave an RP in series [2] of 0.97. The compound also showed a kHSA in series [3] of 0.13.

As for `CCS(=O)(=O)CCn1c([N+](=O)[O-])cnc1C` [tinidazole], in series [7], the “log kIAM” value was determined as 0.30 and the kIAM came out at 2.00. Also, the NP in series [4] (setting [8]) was determined as 0.88. The same compound had a CNP in series [6] of 0.89. In series [3], the “log kHSA” value was -0.92 and the kHSA came out at 0.12.

For the compound `COc1cc(Cc2cnc(N)nc2N)cc(OC)c1OC` [trimethoprim], the NP in series [4] (setting [8]) was found to be 0.59. Moreover, the CNP in series [6] is 0.57.

As to `CC(=O)CC(c1ccccc1)c1c(O)c2ccccc2oc1=O` (stereo not shown) [warfarin], in series [7], the “log kIAM” value is listed as 0.44 and the kIAM was determined as 2.76.

As for gentamycin, in series [7], the “log kIAM” value amounted to 0.63 and the kIAM was 4.25. Moreover, the a/b/n code in series [5] is 1. In addition, in series [6], the CNP amounted to 0.96.

The values above are taken from paper PMC9913351, “Computational Approach to Drug Penetration across the Blood-Brain and Blood-Milk Barrier Using Chromatographic Descriptors” (Cells, 2023).
